Assay results taken from ChEMBL document CHEMBL1759974, “Discovery of triazine-benzimidazoles as selective inhibitors of mTOR” (Bioorg Med Chem Lett, 2011).
≈ marks a conversion by molar mass, not a printed value.

Columns and labels:
[1] = Oral bioavailability in Sprague-Dawley rat at 2 mg/kg; assay type: ADME, organism-based; conditions: in vivo
[2] = biological target: T1, Serine/threonine-protein kinase mTOR (Homo sapiens, UniProt P42345)
[3] = biological target: T1, Serine/threonine-protein kinase mTOR; remark: listed apart in the source
[4] = biological target: T1, Serine/threonine-protein kinase mTOR; remark: listed apart in the source
Description: Inhibition of mTOR in human U-87 cells assessed as inhibition of phosphorylation of AKT at S473

[5] = biological target: Phosphatidylinositol 4,5-bisphosphate 3-kinase catalytic subunit gamma isoform (Homo sapiens, UniProt P48736)
Chain of Phosphatidylinositol 4,5-bisphosphate 3-kinase catalytic subunit gamma isoform (P48736 whole entry, canonical isoform): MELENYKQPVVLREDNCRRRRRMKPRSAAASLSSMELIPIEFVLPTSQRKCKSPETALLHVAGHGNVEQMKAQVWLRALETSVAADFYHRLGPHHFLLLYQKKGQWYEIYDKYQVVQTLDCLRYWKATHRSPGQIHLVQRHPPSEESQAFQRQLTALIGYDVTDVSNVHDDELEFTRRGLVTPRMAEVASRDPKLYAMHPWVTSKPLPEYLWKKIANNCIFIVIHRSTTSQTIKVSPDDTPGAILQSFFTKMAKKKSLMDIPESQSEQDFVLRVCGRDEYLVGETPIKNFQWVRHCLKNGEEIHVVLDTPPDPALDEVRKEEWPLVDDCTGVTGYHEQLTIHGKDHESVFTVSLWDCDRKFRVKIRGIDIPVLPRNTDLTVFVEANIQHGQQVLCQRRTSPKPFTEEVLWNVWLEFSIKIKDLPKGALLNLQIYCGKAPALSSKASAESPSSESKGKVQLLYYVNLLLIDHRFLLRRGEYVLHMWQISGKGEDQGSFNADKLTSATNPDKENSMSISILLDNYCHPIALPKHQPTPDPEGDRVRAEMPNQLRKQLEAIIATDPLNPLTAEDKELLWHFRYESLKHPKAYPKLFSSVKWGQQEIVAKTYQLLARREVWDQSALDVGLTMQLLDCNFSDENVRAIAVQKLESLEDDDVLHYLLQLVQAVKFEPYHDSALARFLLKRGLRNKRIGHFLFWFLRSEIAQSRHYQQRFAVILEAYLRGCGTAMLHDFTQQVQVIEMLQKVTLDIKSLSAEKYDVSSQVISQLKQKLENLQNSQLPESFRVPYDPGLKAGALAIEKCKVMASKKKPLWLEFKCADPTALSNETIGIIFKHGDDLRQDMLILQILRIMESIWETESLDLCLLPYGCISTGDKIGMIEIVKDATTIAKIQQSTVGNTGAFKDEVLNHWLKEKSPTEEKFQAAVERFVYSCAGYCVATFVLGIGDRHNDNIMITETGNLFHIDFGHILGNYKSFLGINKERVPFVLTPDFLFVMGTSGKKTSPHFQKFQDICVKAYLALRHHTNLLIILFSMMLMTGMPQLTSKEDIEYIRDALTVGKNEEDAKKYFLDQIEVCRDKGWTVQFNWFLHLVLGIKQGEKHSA

[6] = Plasma protein binding in Sprague-Dawley rat at 1 mg/kg, iv and 2 mg/kg, po; assay type: ADME, organism-based; conditions: read-out: PPB (converted)
[7] = biological target: T2, Phosphatidylinositol 4,5-bisphosphate 3-kinase catalytic subunit delta isoform (Homo sapiens, UniProt O00329)
T2 sequence (O00329 whole entry): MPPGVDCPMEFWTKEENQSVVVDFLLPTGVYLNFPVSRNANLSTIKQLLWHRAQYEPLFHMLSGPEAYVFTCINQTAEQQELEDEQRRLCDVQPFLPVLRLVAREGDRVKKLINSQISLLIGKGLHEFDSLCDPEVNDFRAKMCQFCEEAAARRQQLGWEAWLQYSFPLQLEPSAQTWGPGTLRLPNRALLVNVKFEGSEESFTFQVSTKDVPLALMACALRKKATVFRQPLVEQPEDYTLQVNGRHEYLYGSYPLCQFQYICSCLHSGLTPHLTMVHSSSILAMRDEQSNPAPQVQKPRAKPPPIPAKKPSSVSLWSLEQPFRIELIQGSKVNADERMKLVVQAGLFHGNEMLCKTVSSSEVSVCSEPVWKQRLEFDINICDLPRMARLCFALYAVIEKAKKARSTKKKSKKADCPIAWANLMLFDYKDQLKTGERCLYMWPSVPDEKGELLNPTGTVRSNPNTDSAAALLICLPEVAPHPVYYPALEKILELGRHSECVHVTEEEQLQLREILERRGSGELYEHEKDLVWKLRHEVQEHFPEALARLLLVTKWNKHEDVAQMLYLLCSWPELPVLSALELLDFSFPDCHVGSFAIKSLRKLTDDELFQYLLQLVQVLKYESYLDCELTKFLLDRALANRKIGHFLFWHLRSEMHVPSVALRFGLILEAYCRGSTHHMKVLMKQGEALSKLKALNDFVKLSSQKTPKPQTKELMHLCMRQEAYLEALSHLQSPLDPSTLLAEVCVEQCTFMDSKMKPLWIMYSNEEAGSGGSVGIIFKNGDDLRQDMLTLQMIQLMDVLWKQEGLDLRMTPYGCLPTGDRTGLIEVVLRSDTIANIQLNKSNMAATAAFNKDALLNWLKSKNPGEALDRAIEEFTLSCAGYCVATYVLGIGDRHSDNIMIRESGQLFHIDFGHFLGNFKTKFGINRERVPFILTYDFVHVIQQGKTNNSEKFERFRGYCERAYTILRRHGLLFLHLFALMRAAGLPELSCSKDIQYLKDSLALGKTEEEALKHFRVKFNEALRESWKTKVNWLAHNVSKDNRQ

Rattus norvegicus [8] = test: AUC in Sprague-Dawley rat at 0.5 mg/kg, iv; assay type: ADME, organism-based, Plasma; design: dose 0.5 mg/kg, route intravenous; conditions: in vivo
[9] = Clearance in Sprague-Dawley rat at 0.5 mg/kg, iv; assay type: ADME, organism-based; design: dose 0.5 mg/kg, route intravenous; conditions: in vivo
[10] = Volume of distribution at steady state in Sprague-Dawley rat at 0.5 mg/kg, iv; assay type: ADME, organism-based; design: dose 0.5 mg/kg, route intravenous; conditions: in vivo, read-out: Vdss
[11] = biological target: Phosphatidylinositol 4,5-bisphosphate 3-kinase catalytic subunit beta isoform (Homo sapiens, UniProt P42338)
Chain of Phosphatidylinositol 4,5-bisphosphate 3-kinase catalytic subunit beta isoform (P42338 whole entry, canonical isoform): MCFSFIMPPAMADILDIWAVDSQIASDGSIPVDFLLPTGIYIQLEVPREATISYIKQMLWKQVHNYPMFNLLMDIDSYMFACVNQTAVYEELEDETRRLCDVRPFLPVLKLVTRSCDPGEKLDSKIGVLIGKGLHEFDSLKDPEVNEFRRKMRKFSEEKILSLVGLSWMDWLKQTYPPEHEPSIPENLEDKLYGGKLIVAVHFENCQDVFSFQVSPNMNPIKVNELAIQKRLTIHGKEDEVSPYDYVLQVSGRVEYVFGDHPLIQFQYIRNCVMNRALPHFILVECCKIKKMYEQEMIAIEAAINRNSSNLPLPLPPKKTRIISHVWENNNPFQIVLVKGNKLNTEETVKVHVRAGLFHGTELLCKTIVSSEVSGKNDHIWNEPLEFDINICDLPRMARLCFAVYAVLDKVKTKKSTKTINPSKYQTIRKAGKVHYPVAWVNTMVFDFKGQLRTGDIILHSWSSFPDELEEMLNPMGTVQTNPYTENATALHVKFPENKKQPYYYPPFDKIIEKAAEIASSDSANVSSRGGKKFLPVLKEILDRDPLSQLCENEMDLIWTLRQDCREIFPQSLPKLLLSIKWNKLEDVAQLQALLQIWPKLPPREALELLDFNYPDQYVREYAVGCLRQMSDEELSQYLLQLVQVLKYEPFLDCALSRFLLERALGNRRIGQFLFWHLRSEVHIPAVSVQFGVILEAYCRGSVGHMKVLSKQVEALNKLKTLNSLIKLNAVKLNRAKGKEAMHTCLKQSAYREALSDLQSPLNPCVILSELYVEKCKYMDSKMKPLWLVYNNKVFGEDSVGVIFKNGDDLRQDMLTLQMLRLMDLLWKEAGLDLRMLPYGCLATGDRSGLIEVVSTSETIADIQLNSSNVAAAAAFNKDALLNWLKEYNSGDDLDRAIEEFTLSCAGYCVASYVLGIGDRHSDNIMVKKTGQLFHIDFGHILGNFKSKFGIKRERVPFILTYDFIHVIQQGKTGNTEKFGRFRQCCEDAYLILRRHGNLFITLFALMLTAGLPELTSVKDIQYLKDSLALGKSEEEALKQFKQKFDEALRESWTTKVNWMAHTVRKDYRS

[12] = Half life in Sprague-Dawley rat at 0.5 mg/kg, iv; assay type: ADME, organism-based; design: dose 0.5 mg/kg, route intravenous; conditions: in vivo
[13] = biological target: Phosphatidylinositol 4,5-bisphosphate 3-kinase catalytic subunit alpha isoform (Homo sapiens, UniProt P42336)
Chain of Phosphatidylinositol 4,5-bisphosphate 3-kinase catalytic subunit alpha isoform (P42336 whole entry, canonical isoform): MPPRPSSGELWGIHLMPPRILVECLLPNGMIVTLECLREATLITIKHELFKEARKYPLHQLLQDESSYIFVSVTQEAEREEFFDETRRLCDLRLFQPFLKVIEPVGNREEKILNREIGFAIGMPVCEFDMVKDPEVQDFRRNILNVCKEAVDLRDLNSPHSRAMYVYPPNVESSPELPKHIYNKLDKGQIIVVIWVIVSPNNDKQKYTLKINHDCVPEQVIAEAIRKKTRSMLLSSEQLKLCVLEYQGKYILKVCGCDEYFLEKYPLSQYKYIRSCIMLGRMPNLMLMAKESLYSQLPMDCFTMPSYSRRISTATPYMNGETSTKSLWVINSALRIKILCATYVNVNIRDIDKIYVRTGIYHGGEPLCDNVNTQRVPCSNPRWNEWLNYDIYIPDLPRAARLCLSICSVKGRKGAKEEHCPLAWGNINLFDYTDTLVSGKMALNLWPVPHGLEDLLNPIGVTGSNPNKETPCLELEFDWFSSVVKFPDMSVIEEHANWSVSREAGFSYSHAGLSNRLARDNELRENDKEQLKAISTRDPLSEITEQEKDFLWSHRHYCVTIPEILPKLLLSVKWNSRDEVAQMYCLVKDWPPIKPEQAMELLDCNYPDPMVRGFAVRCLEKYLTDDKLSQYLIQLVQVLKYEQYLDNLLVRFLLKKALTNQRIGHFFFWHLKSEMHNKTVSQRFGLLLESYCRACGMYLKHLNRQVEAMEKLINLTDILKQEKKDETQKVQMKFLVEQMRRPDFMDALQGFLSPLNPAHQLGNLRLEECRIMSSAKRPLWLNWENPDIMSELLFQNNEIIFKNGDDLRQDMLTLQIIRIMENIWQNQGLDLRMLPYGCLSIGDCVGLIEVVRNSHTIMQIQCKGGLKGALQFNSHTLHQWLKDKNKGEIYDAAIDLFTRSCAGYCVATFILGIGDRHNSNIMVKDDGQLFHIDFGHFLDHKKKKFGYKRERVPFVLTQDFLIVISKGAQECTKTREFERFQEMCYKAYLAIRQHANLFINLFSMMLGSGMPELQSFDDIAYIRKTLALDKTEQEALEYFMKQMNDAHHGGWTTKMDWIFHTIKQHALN

[14] = biological target: Serine/threonine-protein kinase mTOR (Rattus norvegicus) (UniProt P42346); test: Inhibition of HGF induced mTOR activation in rat liver assessed as inhibition of AKT phosphorylation at S473 at 30 mg/kg, ip 6 hrs prior to HGF stimulation by MSD analysis; assay type: organism-based; design: dose 30 mg/kg; scale not given: the % may be the effect or the level left
Rattus norvegicus [15] = test: AUC in rat at 2 mg/kg, po; assay type: ADME, organism-based, Plasma; design: dose 2 mg/kg, route oral; conditions: in vivo
Rattus norvegicus [16] = test: Inhibition of HGF induced mTOR activation in ip dosed rat liver assessed as inhibition of AKT phosphorylation at S473 administered 6 hrs prior to HGF stimulation by MSD analysis; assay type: functional, organism-based
[17] = AUC in rat at 50 mg/kg, po; assay type: ADME, organism-based; design: dose 50 mg/kg, route oral; conditions: plasma
[18] = Volume of distribution at steady state in Sprague-Dawley rat at 1 mg/kg, iv and 2 mg/kg, po; assay type: ADME, organism-based; conditions: in vivo, read-out: Vdss
[19] = Solubility of compound in 0.01 N HCL; assay type: physicochemical; conditions: 0.01 N HCl; read-out: solubility
[20] = Clearance in Sprague-Dawley rat at 1 mg/kg, iv and 2 mg/kg, po; assay type: ADME, organism-based; conditions: in vivo
[21] = biological target: Serine/threonine-protein kinase mTOR (Rattus norvegicus) (UniProt P42346); test: Inhibition of HGF induced mTOR activation in rat liver assessed as inhibition of S6RP phosphorylation at 100 mg/kg, ip 6 hrs prior to HGF stimulation by MSD analysis; assay type: organism-based; design: dose 100 mg/kg
Rattus norvegicus [22] = test: AUC in Sprague-Dawley rat at 1 mg/kg, iv; assay type: ADME, organism-based, Plasma; design: dose 1 mg/kg, route intravenous; conditions: in vivo
[23] = biological target: Serine/threonine-protein kinase mTOR (Rattus norvegicus) (UniProt P42346); test: Inhibition of HGF induced mTOR activation in rat liver assessed as inhibition of AKT phosphorylation at S473 at 100 mg/kg, ip 6 hrs prior to HGF stimulation by MSD analysis; assay type: organism-based; design: dose 100 mg/kg
[24] = Half life in Sprague-Dawley rat at 1 mg/kg, iv; assay type: ADME, organism-based; design: dose 1 mg/kg, route intravenous; conditions: in vivo

SMILES | bioavailability [1] | IC50 [2] | IC50 [3] | IC50 [4] | IC50 [5] | fraction unbound [6] | IC50 [7] | IC50 [11] | IC50 [13] | also measured
Cc1nc(NCC#N)nc(-n2c(Nc3ccn[nH]3)nc3ccccc32)n1 | 0% | 31 nM | 600 nM | 73 nM | 3600 nM | 0.016 | 4000 nM | 8500 nM | 6200 nM | AUC (Rattus norvegicus [8]): 559 nM; clearance [9]: 41.7 mL/min/kg; Vd [10]: 1.5 L/kg; half-life [12]: 27 min
CNc1nc(C)nc(-n2c(Nc3cc[nH]n3)nc3ccccc32)n1 | 20.7% | 81 nM | 600 nM | 100 nM | 3200 nM | 0.008 | 890 nM | 4500 nM | 2200 nM | Activity [14]: 71%; AUC (Rattus norvegicus [15]): 1490 nM; inhibition (Rattus norvegicus [16]): Dose-dependent effect; AUC [17]: 2.03 µM·h; Vd [18]: 0.76 L/kg; solubility [19]: 156 µg/mL (≈ 485 µM); clearance [20]: 15.5 mL/min/kg; inhibition [21]: 78%; AUC (Rattus norvegicus [22]): 3.6 µM; inhibition [23]: 83%; half-life [24]: 33.6 min
